Where only a bound is given, the exact number is not on record here.

Experiment [1] has as its target Full length G2019 human LRRK2 (Homo sapiens (Human), UniProt Q5S007). The experiment is described as follows: Full length G2019 human LRRK2 inhibition mass spectrometry assay. The settings on record: Full length Flag-LRRK2, 25 uM LRRKtide, 2 mM ATP; for IC50: read-out: Full length G2019 human LRRK2 Inhibition mass spectrometry assay (pIC50) (converted). Format: biochemical. As for the experimental part:
Mass Spectrometer Settings • LRRKtide Detection settings: Q1 mass 644.8 Da, Q3 mass 638.8, declustering potential 76 volts, collision energy 37 volts, CXP 34 volts • Phospho-LRRKtide Detection settings: Q1 mass 671.4 Da, Q3 mass 638.8, Declustering potential 76 volts, Collision energy 37 volts, CXP 34 volts. • A C4 cartridge was used and running buffers were: A (aqueous) 0.1% formic acid in water B (organic) 0.1% formic acid, 80% acetonitrile, 20% water • 5. Data was analysed using ActivityBase software (IDBS). A percent conversion from LRRKtide to Phospho-LRRKtide was calculated using the following formula: % conversion=(Phospho-LRRKtide product peak area/(Phospho-LRRKtide product peak area+LRRKtide substrate peak area))*100 2) Full Length G2019 Human LRRK2 Inhibition Mass Spectrometry Assay Insect Cell Cultures
Sf9 insect cells (Invitrogen Life Technologies, Carlsbad, Calif.) were maintained at 27° C. in SF 900 II SFM in 500-ml stationary flasks. The cells were maintained in exponential growth phase and subcultured twice per week. For larger volumes, cells were grown in 2-liter shaker flasks (Erlenmeyer, Corning) while being agitated with 120 rpm at 27° C. incubator shaker.
Human G2019 LRRK2 Plasmids Preparation
Primers Used for PCR Cloning:
• pHTBV-F: SEQ ID No: 1 • LRRK2 wt-F1: SEQ ID No: 2 • LRRK2 wt-R1: SEQ ID No: 3 • LRRK2 wt-F2: SEQ ID No: 4 • LRRK2 wt-R2: SEQ ID No: 5 • LRRK2 wt-F3: SEQ ID No: 6 • pHTBV-R: SEQ ID No: 7
The primers described above were used to amplify full length human LRRK2 (amino acids from 1-2527) with N terminal Flag tag from BioCat 116313 using high fidelity PCR polymerase KOD-Plus according to the manufacturer's instructions (KOD-211, TOYOBO). The PCR product was digested with BamHI and KpnI and ligated into BamHI and KpnI digested pHTBV1mcs3 (BioCat 127555). The sequence of the target fragment was confirmed by DNA sequencing. The construct BioCat141351 was generated by Novoprotein.
The G2019 full length Flag-LRRK2 coding sequence is SEQ ID No: 8.
The translated protein sequence for human G2019 full length LRRK2 flag tagged protein is SEQ ID No: 9.
Generation of the BacMam Virus
To generate the recombinant BacMam virus, SF9 cells were seeded in 6-well tissue culture dishes at 9×10^5 cells/well and allowed to attach for 20 min. Transfection procedure was followed using AESOP AP5911v2. Briefly, DH10Bac competent cells (10361-012, Invitrogen) were transformed by the genotypically normal human LRRK2 BacMam plasmid to generate the recombinant baculovirus DNA. The Sf9 insect cells were co-transfected with the mixture of recombinant baculovirus DNA and cellfectin (10362-100, Invitrogen). After 4 h of incubation at 27° C., the transfection media was replaced with Sf-900 III SFM medium containing 5% HI FBS (Ser. No. 10/100,147, Invitrogen). The cells were further incubated for 4 days. The infected cell culture medium containing the baculovirus (P0 virus stock) was collected and amplified by further infecting the Sf9 cells at multiplicity of infection (MOI) (pfu/cell) of 0.1.
Quantification of BacMam Viral Titre by BacPAKRapid Titer
The viral titre, measured as plaque forming unit (pfu)/ml was determined using BacPAK Papid Titer Kit (631406, Clontech) according to the manufacturer's protocol. The Sf9 cells seeded in 96-well plate with 3×10^5 cells per well were incubated with serial dilution of the viral stocks for 1 h at 27° C., 50 μl methyl cellulose overlay was added to each well followed by 43-47 h incubation. The cells were then fixed in 4% paraformaldehyde (PFA). After blocking the cells with diluted normal goat serum, Mouse anti-gp64 antibody was added to the cells. After 30 min incubation, the cells were washed with phosphate buffered saline containing 0.1% Triton-X100 (PBST) and incubated for another 30 min with goat anti-mouse antibody/HRP conjugate. This was followed by blue peroxidase substrate which detects the single infected cells and foci of infected cells by their dark blue color. […]

The target of experiment [2] is LRRK2 Ser935 phosphorylation in SH-SY5Y cells over-expressing recombinant full length LRRK2 (Homo sapiens (Human), UniProt Q5S007). Description: Recombinant cellular LRRK2 AlphaScreen assay. Format: cell-based. The settings on record: 60 minutes, read-out: Recombinant cellular LRRK2 alphaScreen assay (pIC50) (converted). In a few lines:
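SH-SY5Y cells transduced with BacMam full-length LRRK2 (MOI 50, 24 h) were treated 60 min at 37° C with serial dilutions (top final 10 μM). Lysates were probed by AlphaScreen using biotinylated anti-pSer935 and total-LRRK2 antibodies; dose-response fit to a sigmoidal model.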
For orientation: Bead proximity is the source of the signal in Alpha formats.

Sequence of Full length G2019 human LRRK2 (Q5S007 other isoform, or with tags, fused parts or gaps): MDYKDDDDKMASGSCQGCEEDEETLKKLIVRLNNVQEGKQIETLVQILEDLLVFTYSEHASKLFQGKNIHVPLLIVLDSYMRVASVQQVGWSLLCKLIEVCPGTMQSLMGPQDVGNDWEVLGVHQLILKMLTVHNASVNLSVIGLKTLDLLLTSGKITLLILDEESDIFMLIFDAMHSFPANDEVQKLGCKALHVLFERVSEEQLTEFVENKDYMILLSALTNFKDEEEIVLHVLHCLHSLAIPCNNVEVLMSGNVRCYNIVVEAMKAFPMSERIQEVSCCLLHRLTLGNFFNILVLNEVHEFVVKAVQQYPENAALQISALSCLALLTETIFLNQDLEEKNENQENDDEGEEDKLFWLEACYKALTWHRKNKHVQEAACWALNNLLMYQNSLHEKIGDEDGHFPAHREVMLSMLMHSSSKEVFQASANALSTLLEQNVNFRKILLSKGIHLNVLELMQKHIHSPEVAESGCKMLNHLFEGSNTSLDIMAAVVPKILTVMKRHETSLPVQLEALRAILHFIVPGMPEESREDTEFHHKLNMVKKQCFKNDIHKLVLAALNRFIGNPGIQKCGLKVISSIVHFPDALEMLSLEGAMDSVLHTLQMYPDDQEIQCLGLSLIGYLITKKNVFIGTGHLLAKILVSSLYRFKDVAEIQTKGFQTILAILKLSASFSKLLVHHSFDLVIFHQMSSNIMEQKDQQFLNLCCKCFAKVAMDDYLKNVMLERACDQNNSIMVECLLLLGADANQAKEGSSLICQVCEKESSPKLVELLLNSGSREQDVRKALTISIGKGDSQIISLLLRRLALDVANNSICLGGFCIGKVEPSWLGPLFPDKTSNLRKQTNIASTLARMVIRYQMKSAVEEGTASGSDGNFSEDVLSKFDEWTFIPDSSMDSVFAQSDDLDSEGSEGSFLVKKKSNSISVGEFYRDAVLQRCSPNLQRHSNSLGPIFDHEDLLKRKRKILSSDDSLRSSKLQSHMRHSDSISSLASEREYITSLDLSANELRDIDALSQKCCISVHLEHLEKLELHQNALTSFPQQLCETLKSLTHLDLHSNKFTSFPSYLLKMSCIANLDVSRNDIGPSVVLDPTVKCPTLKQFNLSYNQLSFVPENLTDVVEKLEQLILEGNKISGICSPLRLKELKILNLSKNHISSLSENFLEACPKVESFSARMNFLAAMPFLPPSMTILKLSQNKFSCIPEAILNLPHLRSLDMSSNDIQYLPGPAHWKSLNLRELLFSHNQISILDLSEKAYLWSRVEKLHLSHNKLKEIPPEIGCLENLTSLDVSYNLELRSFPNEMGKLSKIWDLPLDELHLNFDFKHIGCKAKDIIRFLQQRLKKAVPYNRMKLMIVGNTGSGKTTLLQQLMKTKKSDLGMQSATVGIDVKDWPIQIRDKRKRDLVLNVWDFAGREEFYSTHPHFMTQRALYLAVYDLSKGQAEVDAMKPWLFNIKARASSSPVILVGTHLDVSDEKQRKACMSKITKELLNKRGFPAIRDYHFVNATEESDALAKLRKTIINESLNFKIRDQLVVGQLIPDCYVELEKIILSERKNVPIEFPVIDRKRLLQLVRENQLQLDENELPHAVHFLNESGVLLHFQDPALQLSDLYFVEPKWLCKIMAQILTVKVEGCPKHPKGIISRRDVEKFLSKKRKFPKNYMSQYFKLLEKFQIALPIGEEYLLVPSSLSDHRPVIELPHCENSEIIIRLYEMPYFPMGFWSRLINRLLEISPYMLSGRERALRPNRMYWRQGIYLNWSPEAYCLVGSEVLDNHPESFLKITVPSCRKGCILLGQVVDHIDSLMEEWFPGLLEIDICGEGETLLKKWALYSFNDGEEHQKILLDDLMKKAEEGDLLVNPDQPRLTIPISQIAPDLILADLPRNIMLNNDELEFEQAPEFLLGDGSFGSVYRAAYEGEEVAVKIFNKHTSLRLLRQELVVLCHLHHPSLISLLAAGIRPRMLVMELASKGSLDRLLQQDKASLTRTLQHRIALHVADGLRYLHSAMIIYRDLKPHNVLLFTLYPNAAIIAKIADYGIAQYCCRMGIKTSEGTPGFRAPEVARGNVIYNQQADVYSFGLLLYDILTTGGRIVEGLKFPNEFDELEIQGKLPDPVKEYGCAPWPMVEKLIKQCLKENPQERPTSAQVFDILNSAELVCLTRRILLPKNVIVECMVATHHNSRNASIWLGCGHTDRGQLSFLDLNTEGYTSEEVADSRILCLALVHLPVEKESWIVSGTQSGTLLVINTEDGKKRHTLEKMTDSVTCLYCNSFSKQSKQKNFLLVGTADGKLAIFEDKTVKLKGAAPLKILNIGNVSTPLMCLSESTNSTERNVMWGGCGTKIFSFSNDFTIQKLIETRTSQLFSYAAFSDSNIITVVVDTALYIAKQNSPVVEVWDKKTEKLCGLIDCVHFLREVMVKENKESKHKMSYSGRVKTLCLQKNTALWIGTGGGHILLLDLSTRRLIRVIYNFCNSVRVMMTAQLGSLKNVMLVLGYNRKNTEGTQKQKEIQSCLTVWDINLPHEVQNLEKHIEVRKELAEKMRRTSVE
Sequence of LRRK2 Ser935 phosphorylation in SH-SY5Y cells over-expressing recombinant full length LRRK2 (Q5S007 whole entry): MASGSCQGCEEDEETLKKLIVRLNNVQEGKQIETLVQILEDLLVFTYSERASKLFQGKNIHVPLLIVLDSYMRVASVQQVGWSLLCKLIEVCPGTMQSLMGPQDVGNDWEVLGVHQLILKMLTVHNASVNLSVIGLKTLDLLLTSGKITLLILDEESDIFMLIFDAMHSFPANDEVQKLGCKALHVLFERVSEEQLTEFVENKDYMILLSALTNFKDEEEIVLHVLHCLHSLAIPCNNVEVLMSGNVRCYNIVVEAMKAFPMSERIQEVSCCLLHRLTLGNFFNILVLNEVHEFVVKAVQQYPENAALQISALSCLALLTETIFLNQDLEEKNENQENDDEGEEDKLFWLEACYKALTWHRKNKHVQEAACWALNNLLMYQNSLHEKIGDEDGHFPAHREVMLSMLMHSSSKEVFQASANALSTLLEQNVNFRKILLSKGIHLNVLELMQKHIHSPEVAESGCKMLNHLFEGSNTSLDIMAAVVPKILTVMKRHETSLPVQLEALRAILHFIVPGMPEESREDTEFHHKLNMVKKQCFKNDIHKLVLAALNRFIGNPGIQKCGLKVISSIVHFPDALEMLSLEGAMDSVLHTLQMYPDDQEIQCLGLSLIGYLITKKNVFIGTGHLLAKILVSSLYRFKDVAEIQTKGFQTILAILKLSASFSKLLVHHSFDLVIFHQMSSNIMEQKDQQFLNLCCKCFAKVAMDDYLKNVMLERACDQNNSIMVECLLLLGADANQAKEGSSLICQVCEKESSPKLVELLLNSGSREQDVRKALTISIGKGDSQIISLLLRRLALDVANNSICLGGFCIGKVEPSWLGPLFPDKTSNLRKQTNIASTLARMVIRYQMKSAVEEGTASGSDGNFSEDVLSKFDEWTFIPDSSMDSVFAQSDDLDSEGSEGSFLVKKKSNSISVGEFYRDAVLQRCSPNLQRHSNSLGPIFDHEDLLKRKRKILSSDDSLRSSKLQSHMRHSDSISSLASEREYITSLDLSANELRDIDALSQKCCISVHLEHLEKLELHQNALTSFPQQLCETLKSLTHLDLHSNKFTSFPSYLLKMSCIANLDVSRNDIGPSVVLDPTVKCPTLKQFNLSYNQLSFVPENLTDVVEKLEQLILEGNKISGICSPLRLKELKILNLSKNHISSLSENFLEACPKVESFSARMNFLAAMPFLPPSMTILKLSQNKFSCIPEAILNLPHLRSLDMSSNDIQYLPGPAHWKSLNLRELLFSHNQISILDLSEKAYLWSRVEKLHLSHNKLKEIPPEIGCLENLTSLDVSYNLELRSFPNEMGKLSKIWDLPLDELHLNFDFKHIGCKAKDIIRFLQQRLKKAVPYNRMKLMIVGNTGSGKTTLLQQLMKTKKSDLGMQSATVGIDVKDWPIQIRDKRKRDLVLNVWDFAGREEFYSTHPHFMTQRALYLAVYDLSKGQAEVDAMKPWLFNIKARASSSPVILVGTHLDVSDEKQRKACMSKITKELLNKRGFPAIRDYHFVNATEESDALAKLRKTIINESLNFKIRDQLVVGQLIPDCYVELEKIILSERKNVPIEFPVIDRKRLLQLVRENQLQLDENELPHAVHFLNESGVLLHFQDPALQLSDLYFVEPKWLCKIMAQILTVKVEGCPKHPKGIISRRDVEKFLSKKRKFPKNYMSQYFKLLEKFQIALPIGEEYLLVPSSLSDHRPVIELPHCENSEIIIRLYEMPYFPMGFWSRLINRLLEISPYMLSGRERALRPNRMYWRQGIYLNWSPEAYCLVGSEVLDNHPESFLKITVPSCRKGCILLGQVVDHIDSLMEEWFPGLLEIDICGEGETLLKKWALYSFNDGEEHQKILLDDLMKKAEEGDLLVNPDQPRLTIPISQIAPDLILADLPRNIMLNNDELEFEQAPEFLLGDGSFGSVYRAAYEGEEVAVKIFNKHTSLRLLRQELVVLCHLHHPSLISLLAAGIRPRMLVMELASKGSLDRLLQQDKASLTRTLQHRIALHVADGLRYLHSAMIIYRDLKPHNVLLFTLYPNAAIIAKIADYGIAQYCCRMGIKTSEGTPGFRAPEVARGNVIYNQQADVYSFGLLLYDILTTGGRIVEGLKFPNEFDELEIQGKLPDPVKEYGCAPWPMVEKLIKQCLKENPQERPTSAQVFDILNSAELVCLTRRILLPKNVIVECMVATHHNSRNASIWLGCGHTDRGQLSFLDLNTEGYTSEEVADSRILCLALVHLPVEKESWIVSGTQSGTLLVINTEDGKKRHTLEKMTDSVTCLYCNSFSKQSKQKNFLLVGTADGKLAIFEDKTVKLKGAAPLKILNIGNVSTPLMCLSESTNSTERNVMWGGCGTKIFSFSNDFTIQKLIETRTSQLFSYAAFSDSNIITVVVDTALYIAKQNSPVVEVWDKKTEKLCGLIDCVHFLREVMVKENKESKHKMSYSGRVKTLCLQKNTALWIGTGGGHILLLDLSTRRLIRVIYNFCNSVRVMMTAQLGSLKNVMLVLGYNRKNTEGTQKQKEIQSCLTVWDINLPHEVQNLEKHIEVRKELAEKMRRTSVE

On to `COc1nc(N2CC(C)(O)C2)cc(-n2ncc3cc(C)c(C4CCN(C5COC5)CC4)cc32)n1` [Example E80, 1-(2-Methoxy-6-(5-methyl-6-(1-(oxetan-3-yl)piperidin-4-yl)-1H-indazol-1-yl)pyrimidin-4-yl)-3-methylazetidin-3-ol], for which the IC50 in experiment [1] is not above 10 µM; in experiment [2], not above 0.1 µM.
As for `Cc1nc(N2CCO[C@@H](CO)C2)cc(-n2ncc3cc(C)c(C4CCNCC4)cc32)n1` [Example E188, (R)-(4-(2-Methyl-6-(5-methyl-6-(piperidin-4-yl)-1H-indazol-1-yl)pyrimidin-4-yl)morpholin-2-yl)methanol], the “Full length G2019 human LRRK2 Inhibition mass spectrometry assay (pIC50)” value in experiment [1] was determined as 7.6. Further, in experiment [2], the IC50 is 0.0794 µM.
Regarding `COc1nc(N2CC(O)C2)cc(-n2ncc3cc(C)c(C4CN(C)CCO4)cc32)n1` (single isomer, unassigned) [Example E230, 1-(2-Methoxy-6-(5-methyl-6-(4-methylmorpholin-2-yl)-1H-indazol-1-yl)pyrimidin-4-yl)azetidin-3-ol], the IC50 in experiment [1] was 0.251 µM; in experiment [2], 0.631 µM.
`Cc1nc(N2CCO[C@@H](CO)C2)cc(-n2ncc3cc(C)c(C4CCOCC4)cc32)n1` [Example E239, (R)-(4-(2-Methyl-6-(5-methyl-6-(tetrahydro-2H-pyran-4-yl)-1H-indazol-1-yl)pyrimidin-4-yl)morpholin-2-yl)methanol]: the “Full length G2019 human LRRK2 Inhibition mass spectrometry assay (pIC50)” value in experiment [1] was determined as 7.9. For the same molecule, the IC50 in experiment [2] was 0.158 µM.
The corresponding values for `COc1nc(N2CCOCC2)cc(-n2ncc3cc(C)c(C4CCNCC4)cc32)n1.Cl` [Example E205, 4-(2-Methoxy-6-(5-methyl-6-(piperidin-4-yl)-1H-indazol-1-yl)pyrimidin-4-yl)morpholine] are 7.7 and 0.0501 µM.
For the molecule `Cc1nc(N2CC(O)C2)cc(-n2ncc3cc(C)c(C4CCN(C5COC5)CC4F)cc32)n1` (single isomer, unassigned) [Example E42, (cis)-1-(6-(6-(3-Fluoro-1-(oxetan-3-yl)piperidin-4-yl)-5-methyl-1H-indazol-1-yl)-2-methylpyrimidin-4-yl)azetidin-3-ol], the IC50 is not above 10 µM in experiment [1] and not above 0.1 µM in experiment [2].

The values above are taken from patent US10975081B2, “Substituted fused pyrazole compounds and their use as LRRK2 inhibitors” (GlaxoSmithKline Intellectual Property Development Limited, priority 2015, dated 2021).
